Experimental data as given in patent US8846697B2, “Purine analogs” (The Regents of the University of California, priority 2006, dated 2014).
Entries after “also recorded” stand apart in the source; their conditions may differ.

System: human PBMC
Experiment: Interferon α induction in human PBMC (Luminex, Beadlyte Human MultiCytokine kit)
Assay type: cell-based
Design: key to IFN-α (Interferon concentration): b: Below lower limit of detection
Details: for EC50 / IFN-α (Interferon concentration) / interferon inducing activity (in words): human PBMC; for EC50: 10 μM to 10 nM, composited from three donors, read-out: EC50 (concentration at which 50% of the maximal IFN concentration was achieved); for EC50 / IFN-α (Interferon concentration): 24 hr; for IFN-α (Interferon concentration): all compounds tested at 1 μM, averages from four donors; for interferon inducing activity (in words): 1 μM
Method: Reaction of 8-bromo compound 5 with NaN3 followed by Raney-Ni catalyzed hydrogenation furnished compound 6 in good yield. Acylation of compound 6 with ethylchloroformate led to the ethylcarbamate, compound 27, which was converted to the ureido compound 28 by reaction with methanolic ammonia. All compounds were tested for their ability to induce the production of interferon α in human PBMC compared to compound 4 as a positive control. Human blood samples were obtained from the San Diego Blood Bank. Peripheral blood mononuclear cells (PBMC) were isolated by density-gradient centrifugation over Ficoll-Hypaque (Amersham Pharmacia). Cells were resuspended in RPMI 1640 medium, supplemented with 10% fetal bovine serum (FBS), L-glutamine, and penicillin/streptomycin (RP10; Invitrogen, Carlsbad, Calif.), plated at 10^6 cells/well in 96-well plates, and stimulated with compounds at 1 μM final concentration for 24 hr. at 37° C., 5% CO2. The IFN-α level in the supernatants was measured by Luminex (Austin, Tex.) using the Beadlyte Human MultiCytokine kit (Upstate, Charlottesville, Va.), according to the manufacturer's instructions. Results presented in Table 2 are averages of data composited from four different donors. […] Detailed analytical data for these compounds is as follows:
For this dose response study, cells were treated with the listed compounds at concentrations ranging from 10 μM to 10 nM for 24 hr. The data shown in Table 3 are composited from three different donors, and a non-linear regression curve fit analysis was performed using GraphPad Prism software version 4.0b (San Diego, Calif.) to determine the EC50.

SMILES	EC50	IFN-α (Interferon concentration)	interferon inducing activity (in words)	interferon inducing activity (in words) (listed as hydroxypropyl)	EC50 (in words) (interferon induction in human PBMC)
COCCOc1nc(N)c2[nH]c(=O)n(Cc3ccccc3)c2n1 [Compound 4, 9-benzyl-2-methoxyethoxy-8-oxoadenine, reference compound]	0.14 µM	418.00 pg/mL			
COCCOc1nc(N)c2nc(N)n(Cc3ccccc3)c2n1 [Compound 6]	> 10 µM	35.25 pg/mL	completely removed all interferon inducing activity		
CNc1nc2c(N)nc(OCCOC)nc2n1Cc1ccccc1 [Compound 7]		b			
CCNc1nc2c(N)nc(OCCOC)nc2n1Cc1ccccc1 [Compound 8]	4.42 µM	80.30 pg/mL	most active; also recorded: superior to the others		
CCCNc1nc2c(N)nc(OCCOC)nc2n1Cc1ccccc1 [Compound 9]		8.80 pg/mL			
CCCCNc1nc2c(N)nc(OCCOC)nc2n1Cc1ccccc1 [Compound 10]		0.73 pg/mL			
CCN(CC)c1nc2c(N)nc(OCCOC)nc2n1Cc1ccccc1 [Compound 11]		b	activity is lost		
COCCOc1nc(N)c2nc(NCCO)n(Cc3ccccc3)c2n1 [Compound 12]	5.33 µM	99.21 pg/mL	most active; also recorded: activity was enhanced somewhat		
COCCOc1nc(N)c2nc(N(CCO)CCO)n(Cc3ccccc3)c2n1 [Compound 13]		0.82 pg/mL	abrogated activity		
COCCOc1nc(N)c2nc(NCCCO)n(Cc3ccccc3)c2n1 [Compound 14]	3.2 µM	113.18 pg/mL	most active	about equally active	
COCCOc1nc(N)c2nc(NCCCCO)n(Cc3ccccc3)c2n1 [Compound 15]		b	devoid of activity		
COCCOc1nc(N)c2nc(NCC3CCCO3)n(Cc3ccccc3)c2n1 (stereo not drawn) [Compound 16]		b			
COCCOc1nc(N)c2nc(NCc3ccccc3)n(Cc3ccccc3)c2n1 [Compound 17]		b			
COCCOc1nc(N)c2nc(NCCc3ccccc3)n(Cc3ccccc3)c2n1 [Compound 18]		1.33 pg/mL	not active		
COCCOc1nc(N)c2nc(NCCN3CCOCC3)n(Cc3ccccc3)c2n1 [Compound 19]	0.79 µM	110.48 pg/mL	most active; also recorded: highest activity		submicromolar range
COCCOc1nc(N)c2nc(NCCN3CCCCC3)n(Cc3ccccc3)c2n1 [Compound 20]		b	not active		
COCCNc1nc2c(N)nc(OCCOC)nc2n1Cc1ccccc1 [Compound 21]		b			
COCCOc1nc(N)c2nc(NCCN(CCO)CCO)n(Cc3ccccc3)c2n1 [Compound 22]		b			
COCCOc1nc(N)c2nc(NCCCN(CCO)CCO)n(Cc3ccccc3)c2n1 [Compound 23]		b			
COCCOc1nc(N)c2nc(NCC3CCCCC3)n(Cc3ccccc3)c2n1 [Compound 24]		b			
COCCOc1nc(N)c2nc(N3CCOCC3)n(Cc3ccccc3)c2n1 [Compound 25]		0.41 pg/mL	not active		
COCCOc1nc(N)c2nc(NCCc3c[nH]c4ccccc34)n(Cc3ccccc3)c2n1 [Compound 26]		b	not active		
CCOC(=O)Nc1nc2c(N)nc(OCCOC)nc2n1Cc1ccccc1 [Compound 27]		1.03 pg/mL			
COCCOc1nc(N)c2nc(NC(N)=O)n(Cc3ccccc3)c2n1 [Compound 28]		b			
COCCOc1nc(N)c2nc(NN)n(Cc3ccccc3)c2n1 [Compound 29]		0.21 pg/mL			
